# “And” between values parts separate entries of the source, which are not always exact repeats. Equal entries are not always repeated. Where two headings read alike, the source gives them in different places.
# Experiments:
# [1] = system: M. tuberculosis (strain H37Rv and H37Ra); experiment: Time kill kinetics assay (Test 3); type: cell-based, Mycobacterium tuberculosis
# Experimental: Time Kill Kinetics Assays: Test 3
# Bactericidal or bacteriostatic activity of the compounds can be determined in a time kill kinetic assay using the broth dilution method. In this assay, the starting inoculum of M. tuberculosis (strain H37Rv and H37Ra) is 10^6 CFU/ml in Middlebrook (1×) 7H9 broth. The test compounds (cyt bd inhibitors) are tested in combination with a cyt bc inhibitor (for example Q203 or Compound X) at the concentration ranging from 10-30 μM to 0.9-0.3 μM respectively. Tubes receiving no antibacterial agent constitute the culture growth control. The tubes containing the microorganism and the test compounds are incubated at 37° C. After 0, 1, 4, 7, 14 and 21 days of incubation samples are removed for determination of viable counts by serial dilution (10^0 to 10^−6) in Middlebrook 7H9 medium and plating (100 μl) on Middlebrook 7H11 agar. The plates are incubated at 37° C. for 21 days and the number of colonies are determined. Killing curves can be constructed by plotting the log10 CFU per ml versus time. A bactericidal effect of a cytochrome be and cytochrome bd inhibitor (either alone or in combination) is commonly defined as 2-log10 decrease (decrease in CFU per ml) compared to Day 0. The potential carryover effect of the drugs is limited by using 0.4% charcoal in the agar plates, and by serial dilutions and counting the colonies at highest dilution possible used for plating.
# Compounds of the examples are/were tested in Test 3 (the kill kinetics) described above, obtaining results expressed as a log reduction in CFUs per ml as compared to Day 0.
# [2] = system: Mycobacterium tuberculosis (strain H37Ra), cyt bd; conditions: Mtb H37Ra; for (i) % OCR after cyt bd inhibitor: test compound 10 μM added after Compound X 0.9 μM; for (ii) % OCR after cccp: test compound 10 μM after Compound X 0.9 μM, then CCCP 1 μM
# [3] = system: Mycobacterium tuberculosis strain H37Rv ΔctaE-ΔqcrCAB; experiment: microbe, parasite or virus in culture; type: cell-based; conditions: 240 h
# [4] = system: Mitochondrial toxicity (Glu/Gal); experiment: Mitochondrial toxicity (Glu/Gal) assay; type: cell-based; parameters: key to Score: “negative” means that in the test, it was found to have low mitotoxicity (and hence no mitotoxicity alerts); “positive” means that there were some mitotoxicity alerts; “inconclusive” means that no accurate conclusion could be drawn; conditions: for Score: mitotoxicity score; for Δ IC50,glu/IC50,gal: ratio glu/gal
# [5] = GSH and CN adducts (reactive metabolite formation)
# rCaCh = experiment: CVS / cardio tox rCaCh; type: binding, rat; conditions: CVS
# h-cardiomyocytes = experiment: CTCM Ca2+ transient h-cardiomyocytes HTS; conditions: 0.1 μm, 0.2 μm, 0.5 μm, 1 μm, 2.5 μm, 5 μm
# rNaCh = experiment: CVS / cardio tox rNaCh; type: binding, rat; conditions: CVS; read-out: rNaCh IC50
# hERG = hERG (Homo sapiens, UniProt Q12809); experiment: CVS / cardio tox hERG (DOF); type: binding; conditions: CVS; read-out: hERG IC50
# [6] = compound alone 12 μg/ml, Log Day 0 5.56 (Q203 experiment)
# [7] = galactose medium, read-out: IC50, gal
# [8] = glucose medium, read-out: IC50, glu
# [9] = compound alone 12 μg/ml, Log Day 0 6.66
# [10] = Q203 alone 0.168 μg/ml, Log Day 0 5.56
# [11] = Compound X alone 0.17 μg/ml, Log Day 0 6.66
# hERG, sequence (Q12809 whole entry): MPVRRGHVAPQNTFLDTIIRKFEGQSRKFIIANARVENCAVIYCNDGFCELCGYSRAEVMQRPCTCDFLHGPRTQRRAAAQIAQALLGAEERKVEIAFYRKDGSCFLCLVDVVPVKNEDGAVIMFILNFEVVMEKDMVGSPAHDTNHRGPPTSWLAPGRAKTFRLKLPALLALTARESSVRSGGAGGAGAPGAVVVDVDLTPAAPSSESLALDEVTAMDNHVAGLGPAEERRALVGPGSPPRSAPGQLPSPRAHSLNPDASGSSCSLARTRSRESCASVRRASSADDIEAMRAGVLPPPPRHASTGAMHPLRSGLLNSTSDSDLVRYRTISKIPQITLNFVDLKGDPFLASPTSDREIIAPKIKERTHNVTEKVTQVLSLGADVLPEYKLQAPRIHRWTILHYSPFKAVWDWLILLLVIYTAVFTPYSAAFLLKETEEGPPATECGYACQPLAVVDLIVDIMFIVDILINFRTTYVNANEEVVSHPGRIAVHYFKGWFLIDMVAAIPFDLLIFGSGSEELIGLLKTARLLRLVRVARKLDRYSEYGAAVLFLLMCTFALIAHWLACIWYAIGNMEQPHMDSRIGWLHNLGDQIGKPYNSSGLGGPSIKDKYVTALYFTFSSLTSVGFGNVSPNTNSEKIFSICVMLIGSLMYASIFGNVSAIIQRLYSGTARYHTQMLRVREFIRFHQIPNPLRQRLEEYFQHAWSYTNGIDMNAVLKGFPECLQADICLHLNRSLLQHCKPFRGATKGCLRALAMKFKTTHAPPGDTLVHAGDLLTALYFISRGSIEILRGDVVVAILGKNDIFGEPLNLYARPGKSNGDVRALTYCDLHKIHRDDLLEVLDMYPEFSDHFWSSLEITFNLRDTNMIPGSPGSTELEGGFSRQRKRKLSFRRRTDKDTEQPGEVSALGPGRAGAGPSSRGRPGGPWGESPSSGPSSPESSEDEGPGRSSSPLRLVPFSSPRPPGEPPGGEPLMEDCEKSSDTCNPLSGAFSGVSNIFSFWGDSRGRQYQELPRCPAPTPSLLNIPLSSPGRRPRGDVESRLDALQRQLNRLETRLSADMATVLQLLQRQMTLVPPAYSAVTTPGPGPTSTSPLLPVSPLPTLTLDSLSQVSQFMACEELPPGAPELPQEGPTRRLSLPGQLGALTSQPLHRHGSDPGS
SMILES,"Log Day 21 [1, 6]","Log Day 21-Log Day 0 [1, 6]",(i) % OCR after cyt bd inhibitor [2],(ii) % OCR after cccp [2],IC50 [3],"IC50 [4, 7]","IC50 [4, 8]",Score [4],"Δ IC50,glu/IC50,gal [4]","Log Day 21 [1, 9]","Log Day 21-Log Day 0 [1, 9]",further results
Cc1c(-c2nc3cc(-c4ccc(OC(F)(F)F)cc4)ccn3n2)[nH]c2ccccc2c1=O [Compound 2],8.69 log CFUs per ml,+3.13 log CFUs per ml,24.8%,38.3%,1.33 µM,100 µM,100 µM,negative,[x]0,–,–,–
Cc1c(-c2nc3ccc(-c4ccc(OC(F)(F)F)cc4)cn3n2)[nH]c2ccccc2c1=O [Compound 6],8.64 log CFUs per ml,+3.08 log CFUs per ml,39.7%,58.4%,0.653 µM,21.9 µM and 22.1 µM,15.6 µM and 26.5 µM,negative,1.2,9.06 log CFUs per ml,+2.40 log CFUs per ml,"GSH and CN adducts [5]: negative; AMES II b (+/−rat S9) (AMES II b (+/−rat S9)): negative; IC50 (rCaCh): > 10 µM; CTCM Ca2+ transient h-cardiomyocytes HTS (h-cardiomyocytes): all no; IC50 (rNaCh): > 10 µM; IC50 (hERG): > 10 µM; Δ IC50,glu/IC50,gal ([4]; listed as 6 (repeat)): 1.4; CI (PK parameters in mice; mice): 1.69 mL/min/kg; Fab % (PK parameters in mice; mice): 64%; half-life (PK parameters in mice; mouse, in vivo): 5.6 h"
Cc1c(-c2nc3ccc(-c4cccc(OC(F)(F)F)c4)cn3n2)[nH]c2ccccc2c1=O [Compound 7],–,–,36.5%,54.6%,1.41 µM,20 µM,20 µM,negative,[x]0,9.13 log CFUs per ml,+2.47 log CFUs per ml,–
"CCc1nc2ccc(Cl)cn2c1C(=O)NCc1ccc(N2CCC(c3ccc(OC(F)(F)F)cc3)CC2)cc1 [Compound Q203, 6-chloro-2-ethyl-N-(4-(4-(4-(trifluoromethoxy)phenyl)piperidin-1-yl)benzyl)imidazo[1,2-a]pyridine-3-carboxamide, reference compound]",–,–,–,–,–,–,–,–,–,–,–,"Log Day 21 [1, 10]: 2.59 log CFUs per ml; Log Day 21-Log Day 0 [1, 10]: −2.97 log CFUs per ml"
"CCc1nc2ccc(Cl)cn2c1C(=O)NCc1ccc(C2CC3(C2)CN(S(=O)(=O)C(F)(F)F)C3)cc1 [Compound X, 6-chloro-2-ethyl -N-({4-[2-(trifluoromethanesulfonyl)-2-azaspiro[3.3]heptan-6-yl]phenyl}methyl)imidazo[1,2-a]pyridine-3-carboxamide, reference compound]",–,–,–,–,–,–,–,–,–,–,–,"Log Day 21 [1, 11]: 5.93 log CFUs per ml; Log Day 21-Log Day 0 [1, 11]: −0.73 log CFUs per ml"

# — patent US20220389008A1, “4-QUINOLINONE ANTIBACTERIAL COMPOUNDS” (Janssen Sciences Ireland Unlimited Company, priority 2019, published 2022)
